Tested on: participants with SCD
Test: Preliminary blood analysis of SCD patients given oral Compound I, 300 mg QD for 14 days then 200 mg QD through Week 12 (Part A Sub Study 2);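 for Bilirubin total: values in mg/dL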
Format: in vivo, human
Details: for Bilirubin total: Day 0 (screening) 4.84
Protocol: Part A of this study is a Phase 2 randomized, open-label, dose-finding study in approximately 60 adult participants with SCD. The primary objective of Part A of this study is to assess the effects of Compound I in adult participants with SCD as measured by change in hemoglobin.
Participants are screened for eligibility in the study from Day −28 through Day −1. Eligible participants are randomized on Day 1 based on a 1:1 (100 mg: 150 mg) allocation and will receive their initial dose (loading dose) of Compound I. After completion of Day 1 assessments and subsequent loading doses, participants will continue with administration of their maintenance dose daily through Week 12.
Some newly enrolled participants in Part A will receive a loading dose regimen of 300 mg of Compound I once daily over the first 14 days. Participants will then receive 200 mg once daily maintenance doses through Week 12.

O=Cc1c(O)cccc1OC[C@@H]1COCCN1C(=O)c1cccnc1CCO [Compound I, (S)-2-hydroxy-6-((4-(2-(2-hydroxyethyl)nicotinoyl)morpholin-3-yl)methoxy)benzaldehyde]
Hematocrit (HCT) (Patient B, Day 43, Day 0 (screening) 23.5): 45.4% | Aspartate Aminotransferase (AST) (Patient B, Day 43, Day 0 (screening) 41.1): 27.1 IU/L | Alkaline phosphatase (Patient B, Day 43, Day 0 (screening) 49.3): 67.6 IU/L | Platelet count (Patient B, Day 43, Day 0 (screening) 360): 260 K/μL | Lactate dehydrogenase (LDH) (Patient B, Day 43, Day 0 (screening) 371): 151 IU/L | Bilirubin direct (Patient B, Day 57, Day 0 (screening) 0.18): 0.18 mg/dL | Bilirubin indirect (Patient B, Day 57, Day 0 (screening) 4.66): 0.39 mg/dL | Bilirubin total (Patient B, Day 57): 0.57 mg/dL | Absolute neutrophil (Patient B, Day 57, Day 0 (screening) 6.9): 5.5 K/μL | Hemoglobin (HGB) (Patient B, Day 57, Day 0 (screening) 8.3): 14.3 g/dL | Reticulocytes (Patient B, Day 57, Day 0 (screening) 11.5): 0.9% | Alanine Aminotransferase (ALT) (Patient B, Day 57, Day 0 (screening) 22.0): 17.9 IU/L | Hematocrit (HCT) (Patient B, Day 57, Day 0 (screening) 23.5): 42.6% | Aspartate Aminotransferase (AST) (Patient B, Day 57, Day 0 (screening) 41.1): 26.2 IU/L | Alkaline phosphatase (Patient B, Day 57, Day 0 (screening) 49.3): 69.6 IU/L | Platelet count (Patient B, Day 57, Day 0 (screening) 360): 290 K/μL | Lactate dehydrogenase (LDH) (Patient B, Day 57, Day 0 (screening) 371): 152 IU/L | Bilirubin direct (Patient B, Day 85, Day 0 (screening) 0.18): <0.01 mg/dL | Bilirubin total (Patient B, Day 85): 0.94 mg/dL | Absolute neutrophil (Patient B, Day 85, Day 0 (screening) 6.9): 5.6 K/μL | Hemoglobin (HGB) (Patient B, Day 85, Day 0 (screening) 8.3): 14.9 g/dL | Reticulocytes (Patient B, Day 85, Day 0 (screening) 11.5): 1.1% | Alanine Aminotransferase (ALT) (Patient B, Day 85, Day 0 (screening) 22.0): 20.0 IU/L | Hematocrit (HCT) (Patient B, Day 85, Day 0 (screening) 23.5): 43.7% | Aspartate Aminotransferase (AST) (Patient B, Day 85, Day 0 (screening) 41.1): 27.1 IU/L | Alkaline phosphatase (Patient B, Day 85, Day 0 (screening) 49.3): 72.6 IU/L | Platelet count (Patient B, Day 85, Day 0 (screening) 360): 256 K/μL | Lactate dehydrogenase (LDH) (Patient B, Day 85, Day 0 (screening) 371): 141 IU/L | Bilirubin direct (Patient C, Day 1, Day 0 (screening) 0.58): 0.58 mg/dL | Bilirubin indirect (Patient C, Day 1, Day 0 (screening) 4.26): 4.87 mg/dL | Bilirubin total (Patient C, Day 1): 5.45 mg/dL | Alanine Aminotransferase (ALT) (Patient C, Day 1, Day 0 (screening) 20.0): 24.8 IU/L | Aspartate Aminotransferase (AST) (Patient C, Day 1, Day 0 (screening) 48.0): 62.0 IU/L | Alkaline phosphatase (Patient C, Day 1, Day 0 (screening) 52.4): 51.4 IU/L | Lactate dehydrogenase (LDH) (Patient C, Day 1, Day 0 (screening) 533): 691 IU/L | Bilirubin direct (Patient C, Day 8, Day 0 (screening) 0.58): 0.38 mg/dL | Absolute neutrophil (Patient C, Day 8, Day 0 (screening) 0.8): 6.7 K/μL | Bilirubin indirect (Patient C, Day 8, Day 0 (screening) 4.26): 3.85 mg/dL | Bilirubin total (Patient C, Day 8): 4.23 mg/dL | Hemoglobin (HGB) (Patient C, Day 8, Day 0 (screening) 7.1): 9.1 g/dL | Reticulocytes (Patient C, Day 8, Day 0 (screening) 13.7): 9.9% | Alanine Aminotransferase (ALT) (Patient C, Day 8, Day 0 (screening) 20.0): 28.9 IU/L | Hematocrit (HCT) (Patient C, Day 8, Day 0 (screening) 21.0): 25.9% | Aspartate Aminotransferase (AST) (Patient C, Day 8, Day 0 (screening) 48.0): 57.0 IU/L | Alkaline phosphatase (Patient C, Day 8, Day 0 (screening) 52.4): 61.5 IU/L | Platelet count (Patient C, Day 8, Day 0 (screening) 392): 405 K/μL | Lactate dehydrogenase (LDH) (Patient C, Day 8, Day 0 (screening) 533): 545 IU/L | Bilirubin direct (Patient C, Day 15, Day 0 (screening) 0.58): 0.38 mg/dL | Absolute neutrophil (Patient C, Day 15, Day 0 (screening) 0.8): 3.9 K/μL | Bilirubin indirect (Patient C, Day 15, Day 0 (screening) 4.26): 3.12 mg/dL | Bilirubin total (Patient C, Day 15): 3.50 mg/dL | Hemoglobin (HGB) (Patient C, Day 15, Day 0 (screening) 7.1): 10.2 g/dL | Reticulocytes (Patient C, Day 15, Day 0 (screening) 13.7): 5.0% | Alanine Aminotransferase (ALT) (Patient C, Day 15, Day 0 (screening) 20.0): 18.6 IU/L | Hematocrit (HCT) (Patient C, Day 15, Day 0 (screening) 21.0): 29.8% | Aspartate Aminotransferase (AST) (Patient C, Day 15, Day 0 (screening) 48.0): 34.1 IU/L | Alkaline phosphatase (Patient C, Day 15, Day 0 (screening) 52.4): 54.4 IU/L | Platelet count (Patient C, Day 15, Day 0 (screening) 392): 482 K/μL | Lactate dehydrogenase (LDH) (Patient C, Day 15, Day 0 (screening) 533): 327 IU/L | Bilirubin direct (Patient C, Day 29, Day 0 (screening) 0.58): 0.38 mg/dL | Absolute neutrophil (Patient C, Day 29, Day 0 (screening) 0.8): 2.6 K/μL | Bilirubin indirect (Patient C, Day 29, Day 0 (screening) 4.26): 2.51 mg/dL | Bilirubin total (Patient C, Day 29): 2.89 mg/dL | Hemoglobin (HGB) (Patient C, Day 29, Day 0 (screening) 7.1): 11.6 g/dL | Reticulocytes (Patient C, Day 29, Day 0 (screening) 13.7): 1.8% | Alanine Aminotransferase (ALT) (Patient C, Day 29, Day 0 (screening) 20.0): 17.2 IU/L | Hematocrit (HCT) (Patient C, Day 29, Day 0 (screening) 21.0): 33.9% | Aspartate Aminotransferase (AST) (Patient C, Day 29, Day 0 (screening) 48.0): 39.1 IU/L | Alkaline phosphatase (Patient C, Day 29, Day 0 (screening) 52.4): 51.4 IU/L | Platelet count (Patient C, Day 29, Day 0 (screening) 392): 357 K/μL | Lactate dehydrogenase (LDH) (Patient C, Day 29, Day 0 (screening) 533): 256 IU/L | Bilirubin direct (Patient C, Day 43, Day 0 (screening) 0.58): 0.28 mg/dL | Absolute neutrophil (Patient C, Day 43, Day 0 (screening) 0.8): 1.0 K/μL | Bilirubin indirect (Patient C, Day 43, Day 0 (screening) 4.26): 4.44 mg/dL | Bilirubin total (Patient C, Day 43): 4.72 mg/dL | Hemoglobin (HGB) (Patient C, Day 43, Day 0 (screening) 7.1): 10.5 g/dL | Reticulocytes (Patient C, Day 43, Day 0 (screening) 13.7): 2.8% | Alanine Aminotransferase (ALT) (Patient C, Day 43, Day 0 (screening) 20.0): 26.8 IU/L | Hematocrit (HCT) (Patient C, Day 43, Day 0 (screening) 21.0): 30.1% | Aspartate Aminotransferase (AST) (Patient C, Day 43, Day 0 (screening) 48.0): 46.1 IU/L | Alkaline phosphatase (Patient C, Day 43, Day 0 (screening) 52.4): 58.5 IU/L | Platelet count (Patient C, Day 43, Day 0 (screening) 392): 416 K/μL | Lactate dehydrogenase (LDH) (Patient C, Day 43, Day 0 (screening) 533): 291 IU/L | Bilirubin direct (Patient C, Day 57, Day 0 (screening) 0.58): 0.18 mg/dL | Absolute neutrophil (Patient C, Day 57, Day 0 (screening) 0.8): 4.3 K/μL | Bilirubin indirect (Patient C, Day 57, Day 0 (screening) 4.26): 3.44 mg/dL | Bilirubin total (Patient C, Day 57): 3.62 mg/dL | Hemoglobin (HGB) (Patient C, Day 57, Day 0 (screening) 7.1): 10.4 g/dL | Reticulocytes (Patient C, Day 57, Day 0 (screening) 13.7): 4.2% | Alanine Aminotransferase (ALT) (Patient C, Day 57, Day 0 (screening) 20.0): 21.3 IU/L | Hematocrit (HCT) (Patient C, Day 57, Day 0 (screening) 21.0): 28.9% | Aspartate Aminotransferase (AST) (Patient C, Day 57, Day 0 (screening) 48.0): 46.1 IU/L | Alkaline phosphatase (Patient C, Day 57, Day 0 (screening) 52.4): 56.4 IU/L | Platelet count (Patient C, Day 57, Day 0 (screening) 392): 413 K/μL | Lactate dehydrogenase (LDH) (Patient C, Day 57, Day 0 (screening) 533): 296 IU/L | Bilirubin direct (Patient C, Day 85, Day 0 (screening) 0.58): <0.01 mg/dL | Absolute neutrophil (Patient C, Day 85, Day 0 (screening) 0.8): 4.9 K/μL | Bilirubin total (Patient C, Day 85): 3.62 mg/dL | Hemoglobin (HGB) (Patient C, Day 85, Day 0 (screening) 7.1): 10.0 g/dL | Reticulocytes (Patient C, Day 85, Day 0 (screening) 13.7): 5.9% | Alanine Aminotransferase (ALT) (Patient C, Day 85, Day 0 (screening) 20.0): 20.6 IU/L | Hematocrit (HCT) (Patient C, Day 85, Day 0 (screening) 21.0): 28.2% | Aspartate Aminotransferase (AST) (Patient C, Day 85, Day 0 (screening) 48.0): 39.1 IU/L | Alkaline phosphatase (Patient C, Day 85, Day 0 (screening) 52.4): 55.4 IU/L | Platelet count (Patient C, Day 85, Day 0 (screening) 392): 457 K/μL | Lactate dehydrogenase (LDH) (Patient C, Day 85, Day 0 (screening) 533): 276 IU/L

Reference: patent publication US20260306503A1, “(S)-2-HYDROXY-6-((4-(2-(2-HYDROXYETHYL)NICOTINOYL)MORPHOLIN-3-YL)METHOXY)BENZALDEHYD FOR USE IN THE TREATMENT OF SICKLE CELL DISEASE” (Global Blood Therapeutics, Inc., priority 2023, published 2026)
